{"source": "paper PMC8786932", "about": "“Bicyclic azetidines target acute and chronic stages of Toxoplasma gondii by inhibiting parasite phenylalanyl t-RNA synthetase” (Nature Communications, 2022)", "key": {"TgPheRS[V262A]": {"biological_target": "TgPheRS[V262A] (Toxoplasma gondii, UniProt A0A125YPN6, V262A)", "test": "Enzyme assay, TgPheRS V262A", "assay_type": "biochemical", "details": "Table S4, V262A; read-out: IC50 (enzyme inhibition)"}, "[1]": {"test_system": "T. gondii RHΔhxgprtΔku80 (RHΔΔ)", "test": "Tachyzoite lytic assay, wild-type parent", "assay_type": "cell-based, Toxoplasma gondii", "details": "for % Parasite Growth: RHΔΔ; for EC50: Toxoplasma gondii", "protocol": "Parasite growth on HFF monolayers was monitored using a 96-well plate-based lytic assay modified from a previously described protocol. […]. Freshly harvested parasites (7.5 × 10^4 /well) were added to each well (in 100uL volume) to reach the final concentration range (10 μM to 0.0005 μM, 200 μL/well, 0.1% DMSO). Plates were incubated for 72 h at 37 °C then culture medium was aspirated and monolayers were fixed with 100% ethanol (ETOH) for 5 min at room temperature (RT). After rinsing with water, wells were stained with 0.1% crystal violet solution for 10 min at RT. Plates were rinsed with water, air dried, and absorption quantified on the Cytation 3 multi-mode imager at 570 nm wavelength. % parasite growth was calculated as 100−[(OD value for infected cultures at each concentration of compound/average OD value for no compound and no parasite infection) × 100]. EC50 values were calculated based on the mean of three biological replicates with each replicate containing two technical replicates."}, "TgPheRS V262A M484I": {"biological_target": "T1, TgPheRS V262A M484I (Toxoplasma gondii, UniProt A0A125YPN6, M484I/V262A)", "T1 sequence (A0A125YPN6 1-525 V262A/M484I)": "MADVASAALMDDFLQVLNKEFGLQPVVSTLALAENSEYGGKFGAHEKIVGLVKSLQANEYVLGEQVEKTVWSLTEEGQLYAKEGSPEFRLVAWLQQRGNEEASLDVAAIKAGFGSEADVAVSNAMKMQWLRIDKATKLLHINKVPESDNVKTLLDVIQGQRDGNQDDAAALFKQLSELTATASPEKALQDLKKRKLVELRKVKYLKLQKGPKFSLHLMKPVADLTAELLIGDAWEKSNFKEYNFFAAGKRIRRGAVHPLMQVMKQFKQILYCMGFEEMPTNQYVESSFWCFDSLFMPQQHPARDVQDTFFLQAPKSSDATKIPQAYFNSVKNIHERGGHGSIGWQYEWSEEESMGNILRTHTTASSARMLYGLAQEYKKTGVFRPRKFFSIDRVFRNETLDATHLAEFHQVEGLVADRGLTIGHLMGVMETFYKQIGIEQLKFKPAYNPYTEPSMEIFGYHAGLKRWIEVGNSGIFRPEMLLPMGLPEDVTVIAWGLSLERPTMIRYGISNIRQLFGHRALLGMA", "T1 sequence (S8EZ50 1-675 partner)": "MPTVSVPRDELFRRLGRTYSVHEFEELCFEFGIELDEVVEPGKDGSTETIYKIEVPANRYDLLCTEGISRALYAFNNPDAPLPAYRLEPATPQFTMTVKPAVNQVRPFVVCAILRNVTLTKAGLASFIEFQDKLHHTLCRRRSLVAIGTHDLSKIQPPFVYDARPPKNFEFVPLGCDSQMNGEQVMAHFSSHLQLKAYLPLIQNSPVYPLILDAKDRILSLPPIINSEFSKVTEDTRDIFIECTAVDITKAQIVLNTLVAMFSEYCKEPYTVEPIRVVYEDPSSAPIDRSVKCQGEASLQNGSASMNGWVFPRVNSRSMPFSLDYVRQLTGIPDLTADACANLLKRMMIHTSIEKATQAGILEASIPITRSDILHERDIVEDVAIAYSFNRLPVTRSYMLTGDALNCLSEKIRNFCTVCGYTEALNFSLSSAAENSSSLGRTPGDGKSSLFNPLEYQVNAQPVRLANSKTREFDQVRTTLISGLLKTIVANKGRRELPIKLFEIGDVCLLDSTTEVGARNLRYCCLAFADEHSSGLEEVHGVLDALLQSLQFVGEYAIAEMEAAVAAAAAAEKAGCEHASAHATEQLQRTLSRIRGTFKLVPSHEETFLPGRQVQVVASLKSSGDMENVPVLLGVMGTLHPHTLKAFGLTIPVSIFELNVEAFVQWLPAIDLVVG", "test": "Enzyme assay, TgPheRS V262A M484I double mutant", "assay_type": "biochemical", "details": "for enzyme assay readout (raw): V262A / M484I"}, "[2]": {"test_system": "T. gondii RHΔΔ TgPheRS[M484I]", "test": "Tachyzoite lytic assay, M484I mutant", "assay_type": "cell-based", "details": "Toxoplasma gondii", "protocol": "In vitro cultures of HFF cells containing mature vacuoles were scraped, passaged through 23 g blunt end needles, and filtered using 3 micron filters. Purified parasites were resuspended in 350 μL of cytomix plus[49] and combined in a BTX 4 mm gap cuvette with 30 μL of PCR amplified templates corresponding to mutations of interest and 10 μg of pSAG1:Cas9-GFP U6:sgTgPheRS^[mut] (in 20 μL, 400 μL total volume, see Supplementary Data 1 for sgRNA sequences) prior to electroporation using a BTX ETM 830 electroporator. Amplified templates for TgPheRS mutations were generated from gBlocks (Integrated DNA Technologies, Coralville, IA, USA) that contain a BclI restriction site that replaces the PAM sequence to protect the repair template from being cut by Cas9. […]\nParasite growth on HFF monolayers was monitored using a 96-well plate-based lytic assay modified from a previously described protocol. […] Plates were rinsed with water, air dried, and absorption quantified on the Cytation 3 multi-mode imager at 570 nm wavelength. % parasite growth was calculated as 100−[(OD value for infected cultures at each concentration of compound/average OD value for no compound and no parasite infection) × 100]. EC50 values were calculated based on the mean of three biological replicates with each replicate containing two technical replicates."}}, "note": "“And” between values parts separate entries of the source, which are not always exact repeats. Equal values may be shown once. Read-outs that look alike come from different tables or passages of the source."}
{"smiles": "COc1ccc(NC(=O)N2CCCCN3[C@H](CN(C)C)[C@H](c4ccc(C#Cc5ccccc5)cc4)[C@@H]3C2)cc1", "note": "[BRD7929]", "values": [{"measurement": "IC50", "setting": "TgPheRS[V262A]", "value": 0.207, "unit": "µM"}, {"measurement": "% Parasite Growth", "setting": "[1]; 3.33333333 uM, replicate wells", "value": "-62.34% and -8.91% and -41.4% and -6.78% and -65.46% and -56.23% and -31.38% and -99.25% and -132.9% and -155.42% and -68.19% and -11.78%"}, {"measurement": "% Parasite Growth", "setting": "[1]; 0.00152416 uM", "value": "68.94% and 89.11% and 79.46% and 70.31% and 60.77%"}, {"measurement": "% Parasite Growth", "setting": "[1]; 0.00457247 uM", "value": "84.64% and 87.57% and 82.22% and 46.33% and 48.4%"}, {"measurement": "% Parasite Growth", "setting": "[1]; 0.01371742 uM", "value": "76.37% and 86.87% and 80.22% and 58.24% and 60.43%"}, {"measurement": "EC50", "setting": "[1]; 72 h, read-out: EC50, RHΔΔ", "value": 0.082, "unit": "µM"}, {"measurement": "EC50", "setting": "[1]; read-out: EC50, RHΔΔ", "value": 0.053, "unit": "µM"}, {"measurement": "EC50", "setting": "[1]; Table S4, Wild type, read-out: EC50 (growth restriction)", "value": 0.036, "unit": "µM"}, {"measurement": "IC50", "setting": "TgPheRS V262A M484I; Table S4, V262A-M484I, read-out: IC50 (enzyme inhibition)", "value": 0.197, "unit": "µM"}, {"measurement": "enzyme assay readout (raw)", "setting": "TgPheRS V262A M484I; 0.000005 μM", "value": "0.3462 and 0.3680 and 0.4006"}, {"measurement": "enzyme assay readout (raw)", "setting": "TgPheRS V262A M484I; 0.000050 μM", "value": "0.3131 and 0.3315 and 0.3158"}, {"measurement": "enzyme assay readout (raw)", "setting": "TgPheRS V262A M484I; 0.000500 μM", "value": "0.3040 and 0.3143 and 0.2881"}, {"measurement": "enzyme assay readout (raw)", "setting": "TgPheRS V262A M484I; 0.005000 μM", "value": "0.2789 and 0.2890 and 0.2929"}, {"measurement": "enzyme assay readout (raw)", "setting": "TgPheRS V262A M484I; 0.050000 μM", "value": "0.2807 and 0.2760 and 0.2780"}, {"measurement": "enzyme assay readout (raw)", "setting": "TgPheRS V262A M484I; 0.500000 μM", "value": "0.2333 and 0.2480 and 0.2628"}, {"measurement": "enzyme assay readout (raw)", "setting": "TgPheRS V262A M484I; 5.000000 μM", "value": "0.2051 and 0.1829 and 0.2098"}, {"measurement": "enzyme assay readout (raw)", "setting": "TgPheRS V262A M484I; 50.000000 μM", "value": "0.1004 and 0.1152 and 0.1172"}, {"measurement": "EC50", "setting": "[2]; 72 h, read-out: EC50, M484I", "value": 0.093, "unit": "µM"}, {"measurement": "EC50", "setting": "[2]; read-out: EC50 (growth restriction)", "value": 0.065, "unit": "µM"}]}
